Measured values taken from article PMC5077133, “Towards Development of Small Molecule Lipid II Inhibitors as Novel Antibiotics” (PLoS ONE, 2016).
Read-outs that look alike come from different tables or passages of the source.

Tests used:
E. aerogenes ATCC 13048 = assay: Antibacterial activity (MIC, broth dilution); type: cell-based; conditions: CLSI
Method: (§1) Determination of the Minimal Inhibitory Concentrations (MIC) by dilution was carried out by broth dilution according to CLSI standards.

E. cloacae ATCC 13047 = assay: Antibacterial activity (MIC, broth dilution); type: cell-based; conditions: CLSI
Method: as §1

[1] = system: K. pneumoniae NR-15410 (KPC); assay: Antibacterial activity (MIC, broth dilution); type: cell-based; conditions: CLSI
Method: as §1

[2] = system: K. pneumoniae NR-15411 (KPC); assay: Antibacterial activity (MIC, broth dilution); type: cell-based; conditions: CLSI
Method: as §1

P. aeruginosa PA01 = assay: Antibacterial activity (MIC, broth dilution); type: cell-based; conditions: CLSI
Method: as §1

P. aeruginosa X13273 = assay: Antibacterial activity (MIC, broth dilution); type: cell-based; conditions: CLSI, in µg/mL
Method: as §1

[3] = system: S. aureus HFH-30123 (MRSA); assay: Antibacterial activity (MIC, broth dilution); type: cell-based; conditions: CLSI
Method: as §1

S. aureus MRSA 1094 = assay: Antibacterial activity (MIC, broth dilution); type: cell-based; conditions: CLSI
Method: as §1

[4] = Lipid II binding by Surface Plasmon Resonance; conditions: SPR, immobilized 3-Lipid II, 25°C
In short: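 Farnesyl (3-isoprene) Lipid II amine-coupled (50 RUs) on CM5 chips. Compounds injected at 10 μM, 30 μl/min, 25°C, in 10 mM HEPES, 150 mM NaCl, 0.05% P20, pH 7.4 (± 3 mM EDTA), 10% DMSO. Signals corrected against control flow-cell; kinetics fitted from binding isotherms.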

E. faecalis EF1509 = assay: MIC for the strain used in macromolecular synthesis assays; type: cell-based; conditions: Enterococcus faecalis
Method: as §1
(§2) The effect of compounds on the macromolecular synthetic pathways of E. faecalis EF1509 were measured as follows: Cells were grown at 35°C overnight on Tryptic Soy Agar Broth (Remel, Lenexa, KS), and growth from the plate was used to inoculate 15 ml of Mueller Hinton Broth. The culture was grown to early exponential growth phase (OD600 = 0.2 to 0.3) while incubating in a shaker at 35°C and 150 rpm. For each macromolecular assay, the test agents were added at either 0, 0.25, 0.5, 1, 2, or 4, -fold their respective MIC values for E. faecalis EF1509.

[5] = system: lipid synthesis in E. faecalis EF1509; assay: Macromolecular synthesis assay: lipid synthesis; type: cell-based; conditions: Enterococcus faecalis; E. faecalis EF1509, [3H] glycerol incorporation; read-out: IC50 inhibition of lipid synthesis
Method: as §2
For lipid synthesis, bacterial cells were grown to early exponential growth phase in MHB and 100 μl was added to 1.5 ml Eppendorf tubes (in triplicate) containing various concentrations of test compound or control antibiotics as described above. Following a 5 min incubation at room temp., [^3H] glycerol was added at 0.5 μCi per reaction. Reactions were allowed to proceed at room temperature for 40 min and then stopped through the addition of 375 μl of chloroform/methanol (1:2) followed by vortexing for 20 sec after. Chloroform (125 μl) was then added to each reaction and vortexed, followed by the addition of 125 μl dH2O and vortexing. […] Samples were then counted via liquid scintillation counting. […]

[6] = system: DNA synthesis in E. faecalis EF1509; assay: Macromolecular synthesis assay: DNA synthesis; type: cell-based; conditions: Enterococcus faecalis; E. faecalis EF1509, [3H]Thymidine incorporation; read-out: IC50 inhibition of DNA synthesis
Method: as §2
(§3) For DNA and protein synthesis, 100 μl of cell culture reaching early exponential phase was added to triplicate wells containing various concentrations of test compound or control antibiotics (2.5 μl) at 40X the final concentration in 100% DMSO (0.1% methanol in water for Rifampicin). A 2.5% DMSO treated culture served as the “no drug” control for all experiments. Cells were added in 1.25X strength MHB to account for the volume of drug added to each reaction, or in M9 minimal medium for protein synthesis reactions. […] After washing five times with 200 μl per well of cold 5% TCA, the filters were allowed to dry, and then counted using a Packard Top Count microplate scintillation counter.

[7] = system: protein synthesis in E. faecalis EF1509; assay: Macromolecular synthesis assay: protein synthesis; type: cell-based; conditions: Enterococcus faecalis; E. faecalis EF1509, [3H]Leucine incorporation; read-out: IC50 inhibition of protein synthesis
Method: as §2, §3

[8] = Pharmacokinetic study in mice; type: in vivo, male CD1 mice; parameters: AUClast/D: unit not given here; conditions: for half-life / bioavailability: male, CD1, mouse
[9] = PO 5 mg/kg, male CD1 mice, 5 mg/kg
[10] = mouse, plasma, IV 2.5 mg/kg, male CD1 mice
[11] = mouse, plasma, PO 5 mg/kg, male CD1 mice

CN1/C(=C/C=C/c2cc(-c3ccccc3)cc(-c3ccccc3)[o+]2)C(C)(C)c2ccccc21 [BAS-00127538, (1-Methyl-2,4-diphenyl-6-((1E,3E)-3-(1,3,3-trimethylindolin-2-ylidene)prop-1-en-1-yl)pyryl-1-ium) tetrafluoroborate, reference compound]
Antibacterial activity (MIC) E. aerogenes ATCC 13048 (E. aerogenes ATCC 13048): 16 µg/mL | Antibacterial activity (MIC) E. cloacae ATCC 13047 (E. cloacae ATCC 13047): 32 µg/mL | Antibacterial activity (MIC) K. pneumoniae NR-15410 (KPC) [1]: 8 µg/mL | Antibacterial activity (MIC) K. pneumoniae NR-15411 (KPC) [2]: 16 µg/mL | Antibacterial activity (MIC) P. aeruginosa PA01 (P. aeruginosa PA01): 64 µg/mL | Antibacterial activity (MIC) P. aeruginosa X13273 (P. aeruginosa X13273): >=64 | Antibacterial activity (MIC) S. aureus HFH-30123 (MRSA) [3]: 0.5 µg/mL | Antibacterial activity (MIC) S. aureus MRSA 1094 (S. aureus MRSA 1094): 0.5 µg/mL | Kd [4]: 1810 ± 300 nM | MIC (E. faecalis EF1509): 2 µg/mL | IC50 [5]: 2.3 µg/mL | IC50 [6]: 1.8 µg/mL | IC50 [7]: 1.6 µg/mL | Detection in plasma upon oral administration ([8]; oral administration (not shown)): could not be detected

CN(C)c1ccc(/C=C/c2cc(-c3ccc(Br)cc3)cc(-c3ccc(Br)cc3)[o+]2)cc1 [6jc48-1]
Antibacterial activity (MIC) E. aerogenes ATCC 13048 (E. aerogenes ATCC 13048): ≥ 64 µg/mL | Antibacterial activity (MIC) E. cloacae ATCC 13047 (E. cloacae ATCC 13047): ≥ 64 µg/mL | Antibacterial activity (MIC) K. pneumoniae NR-15410 (KPC) [1]: ≥ 64 µg/mL | Antibacterial activity (MIC) K. pneumoniae NR-15411 (KPC) [2]: ≥ 64 µg/mL | Antibacterial activity (MIC) P. aeruginosa PA01 (P. aeruginosa PA01): ≥ 64 µg/mL | Antibacterial activity (MIC) P. aeruginosa X13273 (P. aeruginosa X13273): >=64 | Antibacterial activity (MIC) S. aureus HFH-30123 (MRSA) [3]: 32 µg/mL | Antibacterial activity (MIC) S. aureus MRSA 1094 (S. aureus MRSA 1094): 32 µg/mL | Kd [4]: 150 ± 30 nM | MIC (E. faecalis EF1509): 4 µg/mL | IC50 [5]: 7.8 µg/mL | IC50 [6]: 8.3 µg/mL | IC50 [7]: 50.4 µg/mL | AUClast/D ([8]; IV […], male CD1 mice): 536±47 | AUCExtrap ([8]; PO 5 mg/kg, male CD1 mice): 48.6% | AUClast/D ([8]; PO 5 mg/kg, male CD1 mice): 9.4 | Vss_obs ([8]; PO 5 mg/kg, male CD1 mice): 1.75 L/kg | Finf (bioavailability) [8, 9]: 2.54% | T1/2 [8, 9]: 2.78 h | half-life ([8]; plasma, iv, […], male CD1 mice): > 13 h | half-life ([8]; plasma, po, 5 mg/kg, PO 5 mg/kg, male CD1 mice): ~3 h | bioavailability ([8]; plasma, po, 5 mg/kg, PO 5 mg/kg, male CD1 mice, read-out: Finf (bioavailability)): ~2.5% | bioavailability ([8]; plasma, po, 5 mg/kg, PO 5 mg/kg, male CD1 mice, read-out: Flast (bioavailability)): 1.9% | AUC(0-inf) [8, 10]: 1770 ± 120 ng·h/mL | AUC(0-t) [8, 10]: 1340 ± 117 ng·h/mL | Cmax [8, 10]: 1040 ± 323 ng/mL | MRT [8, 10]: 7.29 ± 0.27 h | clearance ([8]; mouse, plasma, IV 2.5 mg/kg, male CD1 mice, read-out: Cl_obs): 23.6 ± 1.7 mL/min/kg | AUC(0-inf) [8, 11]: 90 ng·h/mL | AUC(0-t) [8, 11]: 46.9 ng·h/mL | Cmax [8, 11]: 19.1 ng/mL
